In US12138232B2, “Compounds for treating coronavirus infection” (priority 2020, dated 2024):

Tests used:
[1] = based on literature reports; cited from earlier work
[2] = biological target: T1, 3CL protease of SARS-coronavirus 2 (Severe acute respiratory syndrome coronavirus 2, UniProt P0DTD1); experiment: 3CL protease fluorescent assay based on commercial kit (BPS cat. 79955-1); assay type: biochemical; settings: for Activity (RFU/minute): mean ± standard deviation, 0 μM: 743.7 ± 20.6
T1 construct: purchased BPS 79955-1
Protocol: Inhibition of the activity of 3CL protease of SARS-coronavirus 2 (the coronavirus associated with COVID-19) was determined by an assay based on commercial kit (BPS cat. 79955-1). […] The reaction was initiated by addition of 50 μl of 50 μM kit substrate (25 μM final concentration), and then fluorescence was monitored (at 340 nm excitation wavelength, 510 nm emission wavelength) using a CLARIOstar® Plus plate reader (BMG Labtech). The 3CL protease activity was quantified as relative fluorescent units (RFU) per minute.

CC(C)=CCC(O)C1=CC(=O)c2c(O)ccc(O)c2C1=O (stereo not drawn) [Shikonin, 5,8-dihydroxy-2-(1-hydroxy-4-methylpent-3-en-1-yl)naphthalene-1,4-dione]
dosages at which toxicity is not expected [1]: less than 8 grams per day
Activity (RFU/minute) ([2]; 0.1 μM shikonin): 653.8 ± 28.1 RFU/minute
Activity (RFU/minute) ([2]; 1 μM shikonin): 680.1 ± 34.3 RFU/minute
Activity (RFU/minute) ([2]; 10 μM shikonin): 425.0 ± 7.8 RFU/minute
inhibition of 3CL protease ([2]; 100 μM shikonin): almost complete inhibition
Activity (RFU/minute) ([2]; 100 μM shikonin): 2.9 ± 18.4 RFU/minute
